Source: patent US11925629B2, “Heterocyclic inhibitors of ERK1 and ERK2 and their use in the treatment of cancer” (Asana Biosciences, LLC, priority 2015, dated 2024)
pIC50: −log10 of the molar value. Read-outs that look alike come from different tables or passages of the source.

Columns and labels:
Assay type in all cases: cell-based, human
[1] = tested on: phosphorylation of RSK1(S380) (the downstream target of ERK1/2); assay: Phospho-RSK1(S380) ELISA assay in HT-29 cells; conditions: Homo sapiens, HT-29, HT29 cells, read-out: Mechanistic Cell Assay RSK1 Phos HT29 IC50
Method in brief: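 IC50 values derive from a variable-slope sigmoidal fit of sandwich-ELISA signal (450 nm) for RSK1 Ser380 phosphorylation. The cells were B-RafV600E HT-29 colorectal line, exposed to serially diluted compound for 2 h after overnight seeding, then lysed at 4° C.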

[2] = tested on: HCT116 (colorectal carcinoma, K Ras G13D) cells; assay: Cell proliferation (Alamar Blue) assay, HCT116; conditions: Homo sapiens, HCT-116, HCT116 cells
Method in brief: (§1)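 IC50 values derive from variable-slope sigmoidal fits of Alamar Blue fluorescence (540 nm excitation, 590 nm emission, 1-3 h dye incubation). Compound treatment ran 72 h at 37° C./5% CO2 over roughly 0.0005-10 uM in 3-fold steps, on cells plated at 5000/well and pre-incubated 16-24 h.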

[3] = tested on: HT-29 (colorectal carcinoma, B-RafV600E) cells; assay: Cell proliferation (Alamar Blue) assay, HT-29; conditions: Homo sapiens, HT-29, HT29 cells
Method in brief: as §1

Row | Compound | pIC50 ([1]; phospho-RSK1(S380)) | pIC50 [2] | pIC50 [3] | pIC50 [1]
1 | Cc1cnc(Nc2cccc3c2OC(F)(F)O3)nc1-n1ccc(C(=O)NC(CO)c2cccc(Cl)c2)c1 (stereo not drawn) [Example 160, N-(1-(3-chloro-phenyl)-2-hydroxy-ethyl)-1-(2-((2,2-difluoro-benzo[d][1,3]dioxol-4-yl)amino)-5-methyl-pyrimidin-4-yl)-1H-pyrrole-3-carboxamide] | 5.60 to 6.30 | < 5.60 | < 5.60 | 
2 | Cc1cnc(Nc2ccc3c(c2)OC(F)(F)O3)nc1-n1ccc(C(=O)NC(CO)c2cccc(Cl)c2)c1 (stereo not drawn) [Example 62, N-(1-(3-chloro-phenyl)-2-hydroxy-ethyl)-1-(2-((2,2-difluoro-benzo[d][1,3]dioxol-5-yl)amino)-5-methyl-pyrimidin-4-yl)-1H-pyrrole-3-carboxamide] | 5.60 to 6.30 | 5.60 to 6.30 | 5.60 to 6.30 | 
3 | Cc1cnc(NC2CC2)nc1-n1ccc(C(=O)NC(CO)c2cccc(Cl)c2)c1 (stereo not drawn) [Example 115, N-(1-(3-chloro-phenyl)-2-hydroxy-ethyl)-1-(2-(cyclopropyl-amino)-5-methyl-pyrimidin-4-yl)-1H-pyrrole-3-carboxamide] | 6.30 to 6.60 | < 5.60 | < 5.60 | 
4 | Cc1cnc(Nc2cccnc2)cc1-n1ccc(C(=O)NC(CO)c2ccc(F)c(Cl)c2)c1 (stereo not drawn) [Example 171, N-(1-(3-chloro-4-fluorophenyl)-2-hydroxyethyl)-1-(5-methyl-2-(pyridin-3-ylamino)pyridin-4-yl)-1H-pyrrole-3-carboxamide] | < 5.60 | < 5.60 | 5.60 to 6.30 | 
5 | COc1ccc(Nc2ncc(C)c(-n3ccc(C(=O)NC(CO)c4cccc(Cl)c4)c3)n2)cc1OCCCN(C)C (stereo not drawn) [Example 184, N-(1-(3-chlorophenyl)-2-hydroxyethyl)-1-(2-((3-(3-(dimethylamino)propoxy)-4-methoxyphenyl)amino)-5-methylpyrimidin-4-yl)-1H-pyrrole-3-carboxamide] | 5.60 to 6.30 | 6.30 to 6.60 | 5.60 to 6.30 | 
6 | Cc1cnc(Nc2ccc(F)cc2)nc1-n1ccc(C(=O)NC(CO)c2cccc(Cl)c2)c1 (stereo not drawn) [Example 113, N-(1-(3-chloro-phenyl)-2-hydroxy-ethyl)-1-(2-((4-fluoro-phenyl)amino)-5-methyl-pyrimidin-4-yl)-1H-pyrrole-3-carboxamide] | 6.60 to 7.00 | 6.60 to 7.00 | 6.60 to 7.00 | 
7 | Cc1cnc(Nc2cccnc2)nc1-n1cc(NC(=O)N[C@H](CO)c2cccc(Cl)c2)cn1 [Example 23, (S)-1-(1-(3-chlorophenyl)-2-hydroxy-ethyl)-3-(1-(5-methyl-2-(pyridin-3-yl-amino)pyrimidin-4-yl)-1H-pyrazol-4-yl)urea] | < 5.60 | < 5.60 | 5.60 to 6.30 | 
8 | Cc1cnc(Nc2ccccc2)cc1-n1ccc(C(=O)NC(CO)c2ccccc2)c1 (stereo not drawn) [Cmpd 74, N-(2-hydroxy-1-phenylethyl)-1-(5-methyl-2-(phenyl-amino)pyridin-4-yl)-1H-pyrrole-3-carboxamide] | 5.60 to 6.30 | < 5.60 | 5.60 to 6.30 | 
9 | CC[C@@H](CO)Nc1cc(-n2ccc(C(=O)NC(CO)c3ccccc3)c2)c(C)cn1 (stereo partly drawn) [Example 100, N-(2-hydroxy-1-phenyl-ethyl)-1-(2-(((S)-1-hydroxy-butan-2-yl)amino)-5-methyl-pyridin-4-yl)-1H-pyrrole-3-carboxamide] | 6.30 to 6.60 | < 5.60 | < 5.60 | 
10 | O=C(NC(CO)c1ccccc1)c1ccn(-c2nc(Nc3ccc4c(c3)OCO4)ncc2F)c1 (stereo not drawn) [Example 66, 1-(2-(benzo[d][1,3]dioxol-5-ylamino)-5-fluoro-pyrimidin-4-yl)-N-(2-hydroxy-1-phenylethyl)-1H-pyrrole-3-carboxamide] | 6.60 to 7.00 | 5.60 to 6.30 | 6.30 to 6.60 | 
11 | Cc1cnc(Nc2ccc(F)cc2)cc1-n1ccc(C(=O)NC(CN)c2cccc(Cl)c2)c1 (stereo not drawn) [Cmpd 159, N-(2-amino-1-(3-chloro-phenyl)ethyl)-1-(2-((4-fluoro-phenyl)amino)-5-methyl-pyridin-4-yl)-1H-pyrrole-3-carboxamide] | 5.60 to 6.30 | 5.60 to 6.30 | 5.60 to 6.30 | 

Second part, the molecule after the results:

Row | pIC50 ([1]; phospho-RSK1(S380)) | pIC50 [2] | pIC50 [3] | pIC50 [1] | Compound
12 |  | 6.30 to 6.60 | 5.60 to 6.30 | ≥ 7.00 | Cc1cnc(Nc2ccc3c(c2)OC(F)(F)O3)nc1-n1cnc(C(=O)NCc2cccc(Cl)c2CO)c1 [Example 332, N-(3-chloro-2-(hydroxymethyl)benzyl)-1-(2-((2,2-difluorobenzo[d][1,3]dioxol-5-yl)amino)-5-methylpyrimidin-4-yl)-1H-imidazole-4-carboxamide]
13 | 6.60 to 7.00 | ≥ 7.00 | ≥ 7.00 |  | Cc1cnc(N[C@H]2CCOC2)nc1-n1cnc(C(=O)NCc2cccc(Cl)c2CO)c1 [Example 270]
14 |  | 6.30 to 6.60 | 6.30 to 6.60 | 6.60 to 7.00 | Cc1cnc(NC2CCOCC2)nc1-n1cnc(C(=O)NCc2ccc(Cl)cc2CO)c1 [Example 343, N-(4-chloro-2-hydroxymethylbenzyl)-1-(5-methyl-2-((tetrahydro-2H-pyran-4-yl)amino)-pyrimidin-4-yl)-1H-imidazole-4-carboxamide]
15 |  | 5.60 to 6.30 | 6.30 to 6.60 | 6.30 to 6.60 | Cc1cnc(NC2CCOCC2)nc1-n1cnc(C(=O)N[C@H](CN(C)C)c2cccc(Cl)c2)c1 [Example 320, (S)-N-(1-(3-chlorophenyl)-2-(dimethylamino)ethyl)-1-(5-methyl-2-((tetrahydro-2H-pyran-4-yl)amino)pyrimidin-4-yl)-1H-imidazole-4-carboxamide]
16 | < 5.60 | < 5.60 | 5.60 to 6.30 |  | Cc1cnc(NC2CCCCC2O)nc1-n1ccc(C(=O)NC(CO)c2ccc(F)c(Cl)c2)c1 (stereo not drawn) [Example 202, N-(1-(3-chloro-4-fluorophenyl)-2-hydroxyethyl)-1-(2-((2-hydroxycyclohexyl)amino)-5-methylpyrimidin-4-yl)-1H-pyrrole-3-carboxamide]
17 |  | 5.60 to 6.30 | 6.60 to 7.00 | 6.60 to 7.00 | Cc1cnc(NC2CCOCC2)nc1-n1cnc(C(=O)N[C@H](CNCC(C)(C)C)c2cccc(Cl)c2)c1 [Example 337, (S)-N-(1-(3-chlorophenyl)-2-(neopentylamino)ethyl)-1-(5-methyl-2-((tetrahydro-2H-pyran-4-yl)amino)pyrimidin-4-yl)-1H-imidazole-4-carboxamide]
18 |  | ≥ 7.00 | ≥ 7.00 | ≥ 7.00 | CNC[C@@H](NC(=O)c1cn(-c2nc(NC3CCOCC3)ncc2C)cn1)c1cccc(Cl)c1 [Example 326, (S)-N-(1-(3-chlorophenyl)-2-(methylamino)ethyl)-1-(5-methyl-2-((tetrahydro-2H-pyran-4-yl)amino)pyrimidin-4-yl)-1H-imidazole-4-carboxamide]
19 | < 5.60 | < 5.60 | < 5.60 |  | Cc1cnc(NC2CCNCC2)nc1-n1cnc(C(=O)NC(CO)c2cccc(Cl)c2)c1 (stereo not drawn) [Example 214, N-(1-(3-chlorophenyl)-2-hydroxyethyl)-1-(5-methyl-2-(piperidin-4-ylamino)pyrimidin-4-yl)-1H-imidazole-4-carboxamide]
20 | ≥ 7.00 | ≥ 7.00 | ≥ 7.00 |  | Cc1cnc(Nc2ccnn2C)nc1-n1cnc(C(=O)N[C@H](CN)c2cccc(Cl)c2)c1 [Example 280, (S)-N-(2-amino-1-(3-chlorophenyl)ethyl)-1-(5-methyl-2-((1-methyl-1H-pyrazol-5-yl)amino)pyrimidin-4-yl)-1H-imidazole-4-carboxamide]
